# Assay results reported in patent EP0076430A1, “Compositions having antimicrobial activity” (MEDEA RESEARCH S.r.l., priority 1981, dated 1983).
# What was measured:
# Type in all cases: cell-based
# [1] = tested on: Different bacterial species isolated from patients; assay: Bactericide activity, minimum active concentration on the strains; details: Homo sapiens, 24 h
# Method: (§1) Different bacterial species isolated from patients are employed.
# Strains of E. coli, Pseudomonas aeruginosa, indole-positive and negative Proteus, Staphilococcus aureus, Enterobacter, Salmonella sp., Serratia marcescens, B. subtilis and Bacillaceae are investigated.
# (§2) Compounds AB5 and AB6 are dissolved in ethanol (ethyl alcohol 95°, C. Erba) and all the subsequent dilutions performed in distilled water. The chlorhexidine is diluted from the commercial product already dissolved in distilled water.
# (§3) It is assessed through Dinatech apparatus with "Inoculum 96" head.
# (§4) Chemical compounds at established concentra tions are placed in amount of 1 ml in the con tainers, the bacterial inoculum is then added in amount of 0.1 ml (24 hrs culture) and at pre-established times (3,5,10,30,60 and 120 mi nutes), through the head, the mixture compound/ disinfectant agent is transferred in solid medium (agar-heart-brain medium). After incubation at 35°C for 24 hours, the reading is carried out. The tests are repeated in presence of human serum at the concentration of 10%.
# For chlorhexidine, the minimum active concentration is 200 p.p.m.
# [2] = tested on: E. coli; assay: Bactericide activity at different contact times; set-up: key to Bactericide action (growth / no growth): + = growth; - = no growth; details: 200 p.p.m.
# Method: as §1, §2, §3, §4
# [3] = tested on: Indole-positive Proteus; assay: Bactericide activity at different contact times; set-up: key to Bactericide action (growth / no growth): + = growth; - = no growth; details: 200 p.p.m.
# Method: as §1, §2, §3, §4
# [4] = tested on: Serratia marcescens; assay: Bactericide activity at different contact times; set-up: key to Bactericide action (growth / no growth): + = growth; - = no growth; details: 200 p.p.m.
# Method: as §1, §2, §3, §4
# [5] = tested on: Pseudomonas aeruginosa; assay: Bactericide activity at different contact times; set-up: key to Bactericide action (growth / no growth) / Bactericide activity (growth / no growth), serum interference test: + = growth; - = no growth; details: 200 p.p.m.
# Method: as §1, §2, §3, §4
# [6] = tested on: B. subtilis; assay: Bactericide activity at different contact times; set-up: key: + = growth; - = no growth; details: 200 p.p.m.
# Method: as §1, §2, §3, §4
# [7] = tested on: Staph. aureus; assay: Bactericide activity at different contact times; set-up: key: + = growth; - = no growth; details: 200 p.p.m.
# Method: as §1, §2, §3, §4
# [8] = tested on: Salmonella sp.; assay: Bactericide activity at different contact times; set-up: key: + = growth; - = no growth; details: 200 p.p.m.
# Method: as §1, §2, §3, §4
# [9] = tested on: Enterobacter; assay: Minimum inhibitory concentration (MIC), broth dilution; details: 24 h, strain 2643
# Method: as §1, §2
# (§5) The broth dilution is employed to assess MIC values for all strains. Sterile microtiter plates with U bottom with 96 wells are employed. 0.1 Ml of liquid medium (tryptose Roche broth) are put in each well, the plates are kept at -20° and, before use, at room temperature.
# (§6) The disinfectant agent is put in the wells of the row 2 at a concentration of 4000 mcg/ml (real 2000 mcg/ml) and then with a 100 µl micro- pipette dilutions are performed from row 2 to row 11.
# (§7) The row 1 is the control of the medium and the row 12 is the control for the fertility of the medium itself.
# (§8) After having performed the dilutions, 0.01 ml of a 24 hrs bacterial broth culture (previously diluted at 10^-4 for Gram-negative strains and 10-2 for Gram-positive ones) are placed in all wells, from the rows 2 to 12. After the inoculation, the plate is hermetical ly sealed with adhesive transparent band and an hole is done with a needle. The plates are kept at 35° for 24 hours and a macroscopic reading is carried out; in case of non uniform reading, taking place only for chlorhexidine, the cultures from the wells are plated on agar-heart-brain medium (Sclavo) through Dinatech apparatus (head "Inoculum 96") and the reading of the growth is carried out in the following 24 hours.
# [10] = tested on: Pseudomonas aeruginosa; assay: as above; details: 24 h
# Method: as §1, §2, §5, §6, §7, §8
# [11] = tested on: Bacillaceae; assay: as above; details: 24 h; strain 1722
# Method: as §1, §2, §5, §6, §7, §8
# [12] = tested on: Staph. aureus; assay: as above; details: Staphylococcus aureus, 24 h; strain 2672
# Method: as §1, §2, §5, §6, §7, §8
# [13] = tested on: E.coli; assay: as above; details: Escherichia coli, 24 h
# Method: as §1, §2, §5, §6, §7, §8
# [14] = tested on: Indole-positive Proteus; assay: as above; details: 24 h
# Method: as §1, §2, §5, §6, §7, §8
# [15] = tested on: Salmonella sp.; assay: as above; details: 24 h, strain 2482
# Method: as §1, §2, §5, §6, §7, §8
smiles,measurement,setting,value
"N=C(NCCCCCCNC(=N)NC(=N)Nc1ccc(Cl)cc1)NC(=N)Nc1ccc(Cl)cc1 [Chlorhexidine, N,N'-bis-(4-chlorophenyl)-3,12-diimino-2,4,11,13-tetraazatetradecandiimidamide, reference compound]",MBC,[1],200 µg/mL
same,contact time for total bactericide activity,[2],30 to 120 min
same,Bactericide action (growth / no growth),[2]; contact time 3 min,+
same,Bactericide action (growth / no growth),[2]; contact time 5 min,+
same,Bactericide action (growth / no growth),[2]; contact time 10 min,+
same,Bactericide action (growth / no growth),[2]; contact time 30 min,-
same,Bactericide action (growth / no growth),[2]; contact time 60 min,-
same,Bactericide action (growth / no growth),[2]; contact time 120 min,-
same,Bactericide action (growth / no growth),[3]; contact time 3 min,+
same,Bactericide action (growth / no growth),[3]; contact time 5 min,+
same,Bactericide action (growth / no growth),[3]; contact time 10 min,+
same,Bactericide action (growth / no growth),[3]; contact time 30 min,+
same,Bactericide action (growth / no growth),[3]; contact time 60 min,+
same,Bactericide action (growth / no growth),[3]; contact time 120 min,-
same,Bactericide action (growth / no growth),[4]; contact time 3 min,+
same,Bactericide action (growth / no growth),[4]; contact time 5 min,+
same,Bactericide action (growth / no growth),[4]; contact time 10 min,+
same,Bactericide action (growth / no growth),[4]; contact time 30 min,+
same,Bactericide action (growth / no growth),[4]; contact time 60 min,-
same,Bactericide action (growth / no growth),[4]; contact time 120 min,-
same,Bactericide action (growth / no growth),[5]; contact time 3 min,+
same,Bactericide action (growth / no growth),[5]; contact time 5 min,+
same,Bactericide action (growth / no growth),[5]; contact time 10 min,+
same,Bactericide action (growth / no growth),[5]; contact time 30 min,+
same,Bactericide action (growth / no growth),[5]; contact time 60 min,-
same,Bactericide action (growth / no growth),[5]; contact time 120 min,-
same,Bactericide action (growth / no growth),[6]; contact time 3 min,+
same,Bactericide action (growth / no growth),[6]; contact time 5 min,+
same,Bactericide action (growth / no growth),[6]; contact time 10 min,+
same,Bactericide action (growth / no growth),[6]; contact time 30 min,+
same,Bactericide action (growth / no growth),[6]; contact time 60 min,-
same,Bactericide action (growth / no growth),[6]; contact time 120 min,-
same,Bactericide action (growth / no growth),[7]; contact time 3 min,+
same,Bactericide action (growth / no growth),[7]; contact time 5 min,+
same,Bactericide action (growth / no growth),[7]; contact time 10 min,+
same,Bactericide action (growth / no growth),[7]; contact time 30 min,-
same,Bactericide action (growth / no growth),[7]; contact time 60 min,-
same,Bactericide action (growth / no growth),[7]; contact time 120 min,-
same,Bactericide action (growth / no growth),[8]; contact time 3 min,+
same,Bactericide action (growth / no growth),[8]; contact time 5 min,+
same,Bactericide action (growth / no growth),[8]; contact time 10 min,+
same,Bactericide action (growth / no growth),[8]; contact time 30 min,+
same,Bactericide action (growth / no growth),[8]; contact time 60 min,-
same,Bactericide action (growth / no growth),[8]; contact time 120 min,-
same,MIC,[9],2000 µg/mL
same,MIC,[10]; strain 2458,1000 µg/mL
same,MIC,[10]; strain 2488,2000 µg/mL
same,MIC,[10]; strain 2508,> 2000 µg/mL
same,MIC,[10]; strain 2509,2000 µg/mL
same,MIC,[10]; strain 2670,> 2000 µg/mL
same,MIC,[11],< 0.98 µg/mL
same,MIC,[12],< 0.98 µg/mL
same,MIC,[13]; strain 2096,1000 µg/mL
same,MIC,[13]; strain 2117,1000 µg/mL
same,MIC,[13]; strain 2456,500 µg/mL
same,MIC,[13]; strain 2568,2000 µg/mL
same,MIC,[14]; strain 2075,> 1000 µg/mL
same,MIC,[14]; strain 2083,1000 µg/mL
same,MIC,[14]; strain 2105,> 1000 µg/mL
same,MIC,[14]; strain 2410,2000 µg/mL
same,MIC,[14]; strain 2447,2000 µg/mL
same,MIC,[14]; strain 2674,> 2000 µg/mL
same,MIC,[15],500 µg/mL
